Laboratory results as given in patent US8946238B2, “Pyrazolo[1,5-A]pyrimidines as antiviral agents” (Gilead Sciences, Inc., priority 2011, dated 2015).
Where two headings read alike, the source gives them in different places.

Test system: RSV strain A2
Test: RSV antiviral cytoprotection assay in Hep2 cells (RSV-induced cytopathic effect, Cell TiterGlo)
Type: cell-based, Respiratory Syncytial Virus (RSV)
Details: human respiratory syncytial virus
Outline: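 Hep2 cells were infected with RSV A2 and exposed to 3-fold compound dilutions, either 3,000 cells/well for 4 days (96-well) or 2000 cells/well at MOI 1:1000 for 5 days at 37° C. (384-well). Cytopathic effect was read by Cell TiterGlo luminescence, and EC50 or normalized % inhibition came from curve fits against infected and uninfected controls.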

[1] = HEp-2, 0.5 μM compound, RSV A2-infected Hep2 cells, % inhibition calculated from 4-parameter dose response curve, normalized to 0% and 100%, read-out: Percent inhibition at 0.5 μM

Row | Compound | inhibition at 0.5 µM [1] | inhibition at 0.5 µM (HEp-2, read-out: Percent inhibition at 0.5 μM)
1 | Cc1cn2nc([C@@H]3CCCCN3C(=O)c3cc(F)ccc3OC(F)(F)F)cc2nc1N1CC[C@H](N)C1 [Compound 37] | 100% | –
2 | COc1ccc(Cl)cc1C(=O)N1CCCC[C@H]1c1cc2nc(N3C[C@@H](C#N)[C@@H](O)C3)c(C)cn2n1 [Compound 201] | 100% | –
3 | Cc1cc(F)c(F)cc1C(=O)N1CCCC[C@H]1c1cc2nc(N3C[C@@H](C#N)[C@@H](O)C3)c(C)cn2n1 [Compound 153] | 100% | –
4 | Cc1cn2nc([C@@H]3CCCCN3C(=O)c3ccc(-c4ccccc4)cn3)cc2nc1N1CC[C@H](N)C1 [Compound 42] | 9% | –
5 | Cc1cn2nc([C@@H]3CCCCN3C(=O)c3nc(Cl)ccc3Cl)cc2nc1N1CC[C@H](N)C1 [Compound 74] | 100% | –
6 | Cc1cn2nc([C@@H]3CCCCN3C(=O)c3cccc4c3OCC(=O)N4)cc2nc1N1CC[C@H](N)C1 [Compound 65] | 97% | –
7 | COc1cccc(C(=O)N2CCCC[C@H]2c2cc3nc(N4C[C@@H](C#N)[C@@H](O)C4)c(C)cn3n2)c1C [Compound 165] | 92% | –
8 | Cc1ccc(NS(C)(=O)=O)c(C(=O)N2CCCC[C@H]2c2cc3nc(N4C[C@@H](C#N)[C@@H](O)C4)c(C)cn3n2)c1 [Compound 200] | – | 100%
9 | Cc1cn2nc([C@@H]3CCCCN3C(=O)c3cc(Br)ccc3NS(C)(=O)=O)cc2nc1N1C[C@@H](C#N)[C@@H](O)C1 [Compound 199] | 100% | –
10 | COc1ccc(S(N)(=O)=O)cc1C(=O)N1CCCC[C@H]1c1cc2nc(N3CC[C@H](N)C3)c(C)cn2n1 [Compound 29] | 71% | –
11 | Cc1cn2nc([C@@H]3CCCCN3C(=O)c3cc(Cl)ccc3NS(C)(=O)=O)cc2nc1NCC(N)c1ccccc1 (stereo partly shown) [Compound 3] | 100% | –
12 | Cc1cn2nc([C@@H]3CCCCN3C(=O)c3cc(F)ccc3C(F)(F)F)cc2nc1N1CC[C@H](N)C1 [Compound 109] | 100% | –
13 | Cc1cn2nc([C@@H]3CCCCN3C(=O)c3ncccc3F)cc2nc1N1CC[C@H](N)C1 [Compound 71] | 98% | –
14 | Cc1ccc(S(C)(=O)=O)cc1C(=O)N1CCCC[C@H]1c1cc2nc(N3C[C@@H](C#N)[C@@H](O)C3)c(C)cn2n1 [Compound 138] | 65% | –
15 | Cc1ccc(Cl)c(C(=O)N2CCCC[C@H]2c2cc3nc(N4CC[C@H](N)C4)c(C)cn3n2)c1 [Compound 89] | 100% | –
16 | Cc1noc(-c2ccccc2C(=O)N2CCCC[C@H]2c2cc3nc(N4CC[C@H](N)C4)c(C)cn3n2)n1 [Compound 47] | 90% | –
17 | Cc1cccc(C(=O)N2CCCC[C@H]2c2cc3nc(N4C[C@@H](C#N)[C@@H](O)C4)c(C)cn3n2)n1 [Compound 176] | 97% | –
18 | Cc1cn2nc([C@@H]3CCCCN3C(=O)c3cc(Cl)ccc3C(F)(F)F)cc2nc1N1CC[C@H](N)C1 [Compound 106] | 100% | –
19 | COc1cc2c(cc1C(=O)N1CCCC[C@H]1c1cc3nc(N4CC[C@H](N)C4)c(C)cn3n1)CCC2 [Compound 51] | 100% | –
20 | Cc1cn2nc([C@@H]3CCCCN3C(=O)c3cccc4c3CCCC4)cc2nc1N1CC[C@H](N)C1 [Compound 31] | 100% | –
21 | Cc1cn2nc([C@@H]3CCCCN3C(=O)c3cccc4c3ccn4C)cc2nc1N1C[C@@H](C#N)[C@@H](O)C1 [Compound 185] | 100% | –
22 | Cc1ccnc(C(=O)N2CCCC[C@H]2c2cc3nc(N4CC(C#N)[C@@H](O)C4)c(C)cn3n2)c1 (stereo partly shown) [Compound 196] | 96% | –
23 | Cc1cn2nc([C@@H]3CCCCN3C(=O)c3ccccc3OC3CCCC3)cc2nc1N1C[C@@H](C#N)[C@@H](O)C1 [Compound 144] | 80% | –

Row | Compound | inhibition at 0.5 µM [1] | inhibition at 0.5 µM (HEp-2, read-out: Percent inhibition at 0.5 μM)
24 | Cc1cn2nc([C@@H]3CCCCN3C(=O)c3ccc(F)c(F)c3C)cc2nc1N1CC[C@H](N)C1 [Compound 72] | 100% | –
25 | Cc1cn2nc([C@@H]3CCCCN3C(=O)c3cccc(CO)n3)cc2nc1N1CC[C@H](N)C1 [Compound 70] | 56% | –
26 | Cc1cn2nc([C@@H]3CCCCN3C(=O)c3c(Cl)nc4ccccn34)cc2nc1N1CC[C@H](N)C1 [Compound 56] | 84% | –
27 | Cc1cn2nc([C@@H]3CCCCN3C(=O)c3ccc(Cl)c(Cl)c3)cc2nc1N1C[C@@H](C#N)[C@@H](O)C1 [Compound 177] | 99% | –
28 | Cc1cn2nc([C@@H]3CCCCN3C(=O)c3cc(Cl)ccc3NS(C)(=O)=O)cc2nc1N1C[C@@H](N)[C@H](c2ccccc2)C1 [Compound 4] | 100% | –
29 | Cc1cn2nc([C@@H]3CCCCN3C(=O)c3ccc(Cl)cn3)cc2nc1N1CC[C@H](N)C1 [Compound 93] | 44% | –
30 | Cc1cnc2c(C(=O)N3CCCC[C@H]3c3cc4nc(N5CC[C@H](N)C5)c(C)cn4n3)c(Cl)ccc2c1 [Compound 95] | 21% | –
31 | CC(=O)Nc1ccc(C)cc1C(=O)N1CCCC[C@H]1c1cc2nc(N3CC(O)C(C#N)C3)c(C)cn2n1 (stereo partly shown) [Compound 203] | 100% | –
32 | Cc1cn2nc([C@@H]3CCCCN3C(=O)c3ccccc3S(N)(=O)=O)cc2nc1N1CC[C@H](N)C1 [Compound 45] | 45% | –
33 | Cc1cn2nc([C@@H]3CCCCN3C(=O)c3cccc4c3CCCN4)cc2nc1N1C[C@@H](C#N)[C@@H](O)C1 [Compound 139] | 100% | –
34 | CCS(=O)(=O)c1ccc(F)c(C(=O)N2CCCC[C@H]2c2cc3nc(N4C[C@@H](C#N)[C@@H](O)C4)c(C)cn3n2)c1 [Compound 145] | 60% | –
35 | Cc1cn2nc([C@@H]3CCCCN3C(=O)c3cc(F)cc4nc(C)c(C)nc34)cc2nc1N1CC[C@H](N)C1 [Compound 62] | 11% | –
36 | Cc1cn2nc([C@@H]3CCCCN3C(=O)c3ncccc3Br)cc2nc1N1CC[C@H](N)C1 [Compound 76] | 99% | –
37 | Cc1cn2nc([C@@H]3CCCCN3C(=O)c3cc(Cl)ccc3OC(C)C)cc2nc1N1CC[C@H](N)C1 [Compound 63] | 100% | –
38 | Cc1cc(C(=O)N2CCCC[C@H]2c2cc3nc(N4C[C@@H](C#N)[C@@H](O)C4)c(C)cn3n2)c2[nH]ncc2c1 [Compound 143] | 100% | –
39 | Cc1cn2nc([C@@H]3CCCCN3C(=O)c3cccc4ccncc34)cc2nc1N1CC[C@H](N)C1 [Compound 46] | 100% | –
40 | Cc1cn2nc([C@@H]3CCCCN3C(=O)c3ccc4ccccc4n3)cc2nc1N1CC[C@H](N)C1 [Compound 96] | 65% | –
41 | Cc1cn2nc([C@@H]3CCCCN3C(=O)c3ccccc3Cl)cc2nc1N1C[C@@H](C#N)[C@@H](O)C1 [Compound 146] | 100% | –
42 | Cc1cn2nc([C@@H]3CCCCN3C(=O)c3cccc(F)n3)cc2nc1N1C[C@@H](C#N)[C@@H](O)C1 [Compound 160] | 71% | –
43 | Cc1ccc(F)cc1C(=O)N1CCCC[C@H]1c1cc2nc(N3C[C@@H](C#N)[C@@H](O)C3)c(C)cn2n1 [Compound 156] | 100% | –
44 | Cc1cn2nc([C@@H]3CCCCN3C(=O)c3cc(Cl)ccc3NS(C)(=O)=O)cc2nc1N1CCN[C@@H](C(C)C)C1 [Compound 22] | 55% | –
45 | Cc1cn2nc([C@@H]3CCCCN3C(=O)c3cc(Cl)ccc3NS(C)(=O)=O)cc2nc1N1C[C@@H](C#N)[C@@H](OC(=O)CCC(=O)NCCN2CCOCC2)C1 [Compound 209] | 100% | –
46 | CN[C@@H]1CCN(c2nc3cc([C@@H]4CCCCN4C(=O)c4cc(Cl)ccc4NS(C)(=O)=O)nn3cc2C)C1 [Compound 10] | 95% | –
